# Marks after values point to notes of the source that are not given here.
# B1: parathyroid hormone (protein, UniProt P01270 32-115, looked up)
# Parathyroid hormone: SVSEIQLMHNLGKHLNSMERVEWLRKKLQDVHNFVALGAPLAPRDAGSQRPRKKEDNVLVESHEKSLGEADKADVNVLTKAKSQ
# modifications: Parathyroid hormone
# Columns and labels:
# mice = assay: Fatal toxicity after administration to mice; format: in vivo; conditions: 3300 or 2000 units/kg (body weight), intravenous, intramuscular, subdermal, or oral routes
# From the text: (§1) The aforedescribed PTH or PTH derivative has extremely low toxicity.
# [1] = test system: adenyl cyclase from rat kidney; assay: Activity measurement according to the article of Marcus et al.; format: biochemical; conditions: method of Marcus et al. (Non-Patent Document 44)
# Description: [Non-Patent Document 44] Marcus, R et al. “Bioassay of parathyroid hormone in vitro with a stable preparation of adenyl cyclase from rat kidney” Endocrinology 85: 801-810, 1969. […]
# (§2) Female patients diagnosed with primary osteoporosis on the basis of the diagnostic criteria of Non-Patent Document 42 were given intermittent subdermal administrations of 5 or 100 units of an acetate salt of human PTH (1-34), which was prepared using the method of Takai (Patent Documents 4 and 5, Non-Patent Document 43), once per week (accordingly, there was a 5-unit administration group and a 100-unit administration group). The measured activity of the acetate salt of human PTH (1-34) was 3300 units/mg in the present test example according to the article of Marcus et al. (Non-Patent Document 44).
# rats = assay: Fatal toxicity after administration to rats; format: in vivo; conditions: 3300 or 2000 units/kg (body weight), intravenous, intramuscular, subdermal, or oral routes
# From the text: as §1
# [2] = test system: female patients diagnosed with primary osteoporosis; assay: Test Example 2: onset and exacerbation of knee osteoarthritis during once-weekly subdermal administration (placebo vs 200-unit group); format: in vivo, human
# Description: Two tablets of a calcium agent (containing 500 mg of precipitated calcium carbonate (200 mg of calcium) per tablet) were further administered orally once per day to the placebo group and the 200-unit administration group.
# (§3) During the course of administration, both groups were prohibited from concurrent usage of calcitonin formulations, activated vitamin D3 formulations, vitamin K formulations, ipriflavone formulations, formulations of salts of bisphosphonic acid, estrogen formulations, anabolic-hormone formulations, doctor-prescribed calcium formulations (excepting the aforedescribed calcium agent administered as two tablets per day), and other medicinal agents thought to exert an effect on bone metabolism.
# (§4) The attending physicians evaluated knee osteoarthritis according to the diagnostic criteria of each medical treatment facility on the basis of, e.g., the chief complaints of the patient, such as knee-joint pain and knee pain.
# [3] = test system: female patients diagnosed with primary osteoporosis; assay: Test Example 1: onset of knee osteoarthritis during once-weekly subdermal administration (5- vs 100-unit groups); format: in vivo, human; conditions: for Frequency of onset (%) of knee osteoarthritis / Number of cases of onset of knee osteoarthritis: subdermal once per week
# Description: as §2
# An injectable formulation containing 5 or 100 units per vial of the acetate salt of human PTH (1-34) was dissolved into 1 mL of normal saline solution at the time of usage, and 1 mL/person was subdermally administered to the 5-unit and 100-unit groups. Two tablets of a calcium agent (containing 500 mg of precipitated calcium carbonate (200 mg of calcium) per tablet) were further administered orally once per day to the 5-unit and 100-unit groups.
# as §3, §4
# The frequency of onset of knee osteoarthritis in the 5-unit administration group in the present test example was also compared to the natural frequency of onset. The value used for the natural frequency of onset resulted from dividing the 174,000 female arthritis patients of ages 70 through 74 throughout the country in the Japanese Nationwide Patient Survey (2005, edited by the Statistics and Information Department of the Minister's Secretariat of the Ministry of Health, Labour and Welfare, [published by] the Health and Welfare Statistics Association) by the population of 3,597,754 women of the same age throughout the country according to the Statistics Bureau of the Ministry of Internal Affairs and Communications.
# [4] = test system: monkeys subjected to ovariectomy; conditions: cited from earlier work
# hip osteoarthritis = conditions: systematic review of clinical results; cited from earlier work
# [5] = test system: mice subjected to orchiectomy; conditions: cited from earlier work
# [6] = test system: rats subjected to ovariectomy; conditions: cited from earlier work
# [7] = test system: spontaneous-onset guinea pig model; conditions: cited from earlier work
# [8] = test system: knee osteoarthritis patients; conditions: cited from earlier work
# [9] = test system: cartilage cells acquired from knee osteoarthritis patients; conditions: cited from earlier work
# [10] = test system: rabbit model of meniscus damage; conditions: cited from earlier work
# [11] = test system: rabbit model of anterior cruciate ligament transection; conditions: cited from earlier work
# [12] = test system: rat model of osteoarthritis; conditions: cited from earlier work
# [13] = listed as printed as 100-unit administration group, subdermal once per week
# [14] = 5-unit administration group, 165 cases
molecule,measurement,setting,value
human PTH (1-34),Fatal toxicity,mice,never observed
same,Measured activity,[1],3300 units/mg
same,Fatal toxicity,rats,never observed
same,"Frequency of onset of knee osteoarthritis, 200-unit group compared with placebo group",[2]; 200 units once per week,less than that in the placebo group
same,Onset and exacerbation of knee osteoarthritis in osteoporosis patients,[2]; administration to osteoporosis patients,clearly and markedly limits the onset and exacerbation of knee osteoarthritis
same,Exacerbation of knee osteoarthritis: Number of cases of exacerbation,[2]; [13],4
same,Onset of knee osteoarthritis: Frequency of onset (%),[2]; [13],5.4%
same,Onset of knee osteoarthritis: Number of cases of onset,[2]; [13],15
same,Frequency of onset (%) of knee osteoarthritis,[3]; [14],6.67%
same,Number of cases of onset of knee osteoarthritis,[3]; [14],11
same,"Frequency of onset of knee osteoarthritis, 5-unit group compared with natural frequency of onset","[3]; 5 units once per week, 6.67% vs natural 4.84%",statistically significant difference was not found
same,Number of cases of onset of knee osteoarthritis,"[3]; 100-unit administration group, 314 cases",4
same,Frequency of onset (%) of knee osteoarthritis,"[3]; 100-unit administration group, 314 cases, p < 0.05 vs 5-unit group",1.27* %
same,"Frequency of onset of knee osteoarthritis, 100-unit group compared with 5-unit group","[3]; 100 units once per week vs 5 units, p<0.05",significantly less than that in the 5-unit administration group
same,"Onset of knee osteoarthritis, 100-unit group compared with natural onset","[3]; 100 units once per week, natural frequency of onset 4.84%",significantly more limited onset of knee osteoarthritis than in the case of natural onset
Estrogen,Activity for improving cartilage degeneration,[4],activity for improving cartilage degeneration
same,Effects of estrogen therapy,hip osteoarthritis,has not been found to have clear effects
same,Risk of hip osteoarthritis,hip osteoarthritis,increase the risk of hip osteoarthritis
same,Activity for improving cartilage degeneration,[5],activity for improving cartilage degeneration
same,Activity for improving cartilage degeneration,[6],activity for improving cartilage degeneration
O=P(O)(O)C(O)(Cc1cccnc1)P(=O)(O)O [risedronate],Effect of limiting cartilage degeneration,[7],found to have an effect of limiting cartilage degeneration
same,Medicinal effects,[8]; clinical tests on knee osteoarthritis patients,medicinal effects were not found
Hyaluronate,Limiting apoptosis of cartilage cells,[9],activity for limiting apoptosis of cartilage cells
same,Limiting the production of enzymes that degrade the cartilage matrix,[9],showed activity for limiting the production of enzymes that degrade the cartilage matrix
same,Accelerating healing,[10],accelerating healing
same,Efficacy as a medicine for limiting the progression of the disease,[8]; meta-analyses of clinical tests on knee osteoarthritis patients,in doubt
same,Activity for limiting disease progression,[11],activity for limiting disease progression
B1,Therapeutic effect,[12],a slight therapeutic effect
